Measurements: patent US20220168384A1, “Anti-Bacterial Combination Therapy” (McMaster University, priority 2019, published 2022)
Where “and” joins values, the source holds several entries; their conditions need not be identical. Identical values can stand only once.

Assays:
P. aeruginosa PAO1 = assay: Checkerboard assays of TS with DFP, DSX or 10% serum; type: cell-based, Pseudomonas aeruginosa; details: 10:90 + 10% heat-inactivated mouse or human serum, regardless of DSX
Description: Human serum (Corning) and mouse serum (Equitech-Bio) were stored at −20° C. Sera were aliquoted into 5-ml culture tubes by thawing once at 37° C. for 30 min with occasional gentle mixing. Culture tubes were frozen at −20° C. until use. To make 10% serum solutions, serum was thawed for 10 min at 37° C. and then heat inactivated at 57° C. for 30 min. Two milliliters of heat-inactivated serum were added to 18 ml of 10:90 medium and gently mixed. This 10% serum solution was used for checkerboard assays.
Checkerboard assays were set-up using Nunc 96-well plates in an 8-well by 8-well format. Two columns were allocated for vehicle controls and two columns for sterility controls. Vehicle controls contained 2 μL DMSO plus 2 μL DFP solvent for checkerboards with TS and DFP or 4 μL DMSO for TS and DSX, in 146 μL of 10:90 medium or 10% serum inoculated with PA14 or PAO1-KP as described in Growth Curves. Sterile controls contained the same components in 10:90 medium or 10% serum, without cells. Serial dilutions of TS—with 17 μg/mL being the highest final concentration—were added along the y axis of the checkerboard (increasing concentration from bottom to top) whereas serial dilutions of DFP or DSX—with 512 μg/mL being the highest final concentration—were added along the x axis (increasing concentration from left to right). The final volume of each well was 150 μL and each checkerboard was repeated at least three times. Plates were incubated and the final OD600 determined as detailed above.

[1] = system: Acinetobacter baumannii clinical isolates; assay: Clinical isolates testing, A. baumannii; type: cell-based; details: 10:90
Description: Clinical isolates of P. aeruginosa and A. baumannii were inoculated from −80° C. stocks into 200 μL LB broth and grown with shaking at 200 rpm, 16 h, 37° C. in Nunc 96-well plates. The overnight cultures were subcultured (1:25 dilution) into 10:90 and grown with shaking at 200 rpm, 2 h, 37° C. Vehicle controls consisted of 4 μL of DMSO, 144 μL 10:90 and 2 μL of subculture. Sterile controls consisted of 4 μL of DMSO and 146 μL 10:90. […]. The final volume of each well was 150 μL and each checkerboard was repeated at least three times. Plates were incubated with shaking at 200 rpm, 16 h, 37° C. and OD600 was measured (Multiskan Go—Thermo Fisher Scientific). The results were plotted as percent of control (wells containing only DMSO) using Prism (GraphPad).
Clinical isolates were grown and tested as described in Example 1. Briefly, clinical isolates were inoculated from glycerol stocks stored at −80° C. into Nunc 96-well plates and grown overnight at 37° C., for 16 h with shaking in LB (200 rpm). Overnights were subcultured (1:25) into fresh 10:90 medium and grown for 2 h under the same growth conditions. Subcultures were diluted 1:75 in fresh 10:90. Compounds were diluted 1:75 to obtain the final concentration. DOXY and CLI were added at a final concentration of 1 μg/mL, CO was used at 2 μg/mL, TRO was used at 4 μg/mL, TS was used at 8.3 μg/mL, and DSX was used at 32 μg/mL. Vehicle and sterility controls were included. Plates were incubated overnight with the same conditions. The OD600 was read (Multiscan Go—Thermo Fisher Scientific), analyzed using Excel, and the data plotted using Prism (GraphPad).
Culture conditions, checkerboard assays using P. aeruginosa PA14 and dose-response assays were performed as described in Example 1. In addition to TS, other thiopeptides tested were siomycin A (SM), thiocillin I (TC), micrococcin P1 (MC), nosiheptide (NH), berninamycin A (BER), and geninthiocin A (GEN). For dose response assays of the combinations conducted in 10:90, DSX concentration was constant at 64 μg/mL.

[2] = Chrome azurol S (CAS) plate assay; type: physicochemical; details: 5 μl of 2 mg/ml; room temperature 1 h
P. aeruginosa PA14 = assay: Checkerboards pinned to LB agar (bactericidal activity); type: cell-based, Pseudomonas aeruginosa; details: overnight 37° C.
Description: Checkerboards were pinned to LB agar plates using a sterile 96 pin tool. Plates were incubated overnight at 37° C. Independent experiments were conducted 3 times and a representative plate is shown.

[3] = system: P. aeruginosa PAO1 and PA14 expressing Tsr; assay: TS susceptibility of P. aeruginosa expressing tsr in trans from pUCP20; type: cell-based, Pseudomonas aeruginosa; details: VBMM
Description: A) Growth of PAO1; B) Growth of PA14. Each assay was performed at least 3 times in triplicate; **** p<0.0001.
The tsr gene from pIJ6902 was PCR-amplified using primers 5′[…]-3′ and 5′[…]-3′. Both the PCR product and pUCP20 vector were digested with SmaI and HindIII, gel-purified, and ligated at a 1:3 molar ratio using T4 DNA ligase. The ligated DNA was transformed into E. coli DH5a and transformants selected on LB agar containing 100 μg/mL ampicillin and 5-bromo-4-chloro-3-indolyl-β-D-galactopyranoside for blue-white selection. Plasmids from white colonies were purified using a GeneJet Plasmid Miniprep kit (Thermo Scientific) following the manufacturer's protocols. After verification by restriction digest and DNA sequencing, pUCP20 and pUCP20-tsr were each introduced into P. aeruginosa PAO1 and PA14 by electroporation. Transformants were selected on LB agar containing 200 μg/mL carbenicillin.

SMILES: C=C(NC(=O)C(=C)NC(=O)c1csc(C2=N[C@@H]3c4csc(n4)[C@H]4NC(=O)c5csc(n5)[C@H]([C@](C)(O)[C@@H](C)O)NC(=O)[C@H]5CSC(=N5)/C(=C/C)NC(=O)[C@H]([C@@H](C)O)NC(=O)c5csc(n5)[C@]3(CC2)NC(=O)[C@H](C)NC(=O)C(=C)NC(=O)[C@H](C)NC(=O)[C@H]([C@@H](C)CC)N[C@@H]2C=Cc3c([C@H](C)O)cc(nc3[C@H]2O)C(=O)O[C@@H]4C)n1)C(N)=O [TS, thiostrepton]
- concentration of TS required to inhibit growth in serum (P. aeruginosa PAO1): markedly decreased
- susceptibility of A. baumannii strain C0286 [1]: resistant
- activity at 5 µM ([1]; Acinetobacter baumannii, 5 μM TS, 6 of 10 strains, read-out: growth, % of control): ≤ 50%
- decolorization of CAS agar (iron binding) [2]: lack of a color change
- mode of activity of compound alone (P. aeruginosa PA14): bacteriostatic
- resistance to TS compared to vector-only control ([3]; PA14 expressing tsr in trans (pUCP20-tsr)): significantly increased
- TS concentration up to which the strain was resistant ([3]; PAO1 expressing tsr in trans (pUCP20-tsr)): 10 µM
- solubility (physchem): 10 µM and 17 µg/mL
